#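 How tested: cells in 96-well plates exposed to compound for 48 hours at five concentrations. GI50: concentration for 50% inhibition of growth. At the TGI there is no net growth.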
# Columns and labels:
# Assay in all cases: NCI tumour cell line growth inhibition, 48 h
# DLD-1 colon = system: DLD-1 colon
# DMS 273 small cell lung = system: DMS 273 small cell lung
# HOP-18 NSCLC = system: HOP-18 NSCLC
# KM20L2 colon = system: KM20L2 colon
# M19-MEL melanoma = system: M19-MEL melanoma
# LXFL 529 NSCLC = system: LXFL 529 NSCLC
# RXF-631 renal = system: RXF-631 renal
# XF 498 CNS = system: XF 498 CNS
# P388 leukemia = system: P388 leukemia
# P388/ADR leukemia = system: P388/ADR leukemia
# SN12K1 renal = system: SN12K1 renal
Structure (SMILES),GI50 (DLD-1 colon) [µM],GI50 (DMS 273 small cell lung) [µM],GI50 (HOP-18 NSCLC) [µM],GI50 (KM20L2 colon) [µM],GI50 (M19-MEL melanoma) [µM],TGI (DLD-1 colon) [µM],TGI (DMS 273 small cell lung) [µM],TGI (HOP-18 NSCLC) [µM],TGI (KM20L2 colon) [µM],TGI (LXFL 529 NSCLC) [µM],TGI (M19-MEL melanoma) [µM],TGI (RXF-631 renal) [µM],TGI (XF 498 CNS) [µM],TGI (P388 leukemia) [µM],TGI (P388/ADR leukemia) [µM],TGI (SN12K1 renal) [µM]
CN(Cc1cnc2nc(N)nc(N)c2n1)c1ccc(C(=O)NC(CCC(=O)O)C(=O)O)c2ccccc12 (stereo unspecified),0.00257,0.000946,0.0452,0.00489,0.0725,,,,,,,,,,,
COc1ccc(/C(C=O)=C(\Cl)c2ccc(OC)c(OC)c2)cc1,,,,,,> 100,> 100,> 100,> 100,> 100,> 100,> 100,50.2,,,
CCOC(=O)CNC(=O)c1[nH]cnc1/N=N/N(C)C,,,,,,> 100,> 100,,,> 100,> 100,,,,,
CCOC(=O)C(Cc1ccc(N=NN(C)C)cc1)NC(=O)CC1c2ccccc2-c2ccccc21 (stereo unspecified),,,,,,> 100,> 100,,,> 100,> 100,,,,,
CCOC(=O)C1C(c2ccc(Br)cc2)N(Cc2ccccc2)C(c2ccc(Br)cc2)C(C(=O)OC)S1(=O)=O (stereo unspecified),,,,,,> 100,> 100,72.9,> 100,> 100,> 100,,> 100,,,
Cc1cc(NC(=O)NC(=O)c2ccccc2NC(=O)CN(C)C)ccc1Oc1ncc(Br)cn1,,,,,,> 100,> 100,,34.7,> 100,> 100,,> 100,,,
COCc1cc2c(s1)C(=O)C1=C(C2=O)C2(C=C(Br)C(=O)C(Br)=C2)CCN1,,,,,,24.4,13.6,28.4,,11.7,2.77,,19.6,,,
CC(C)(C)OC(=O)N[C@H]1CC(=O)c2ccccc2N(CC(=O)O)C1=O,,,,,,> 100,> 100,> 100,> 100,> 100,> 100,> 100,,,,
CN1CCCc2nc3ccccc3n2C1,,,,,,> 100,> 100,> 100,> 100,> 100,> 100,,> 100,,,
Cc1cc(-c2ccc(N=Nc3ccc4c(S(=O)(=O)O)cc(S(=O)(=O)O)c(N)c4c3O)c(C)c2)ccc1N=Nc1ccc2c(S(=O)(=O)O)cc(S(=O)(=O)O)c(N)c2c1O,,,> 100,,,> 100,> 100,> 100,> 100,,> 100,,> 100,> 100,> 100,> 100
CC1CC(c2ccccc2)=Nc2ccccc2S1 (stereo unspecified),,,,,,> 100,> 100,,> 100,> 100,> 100,> 100,> 100,,,
COCOC1CCCC[C@@]1(OCCOCCO[C@@]1(c2ccccc2)CCCC[C@H]1OCOC)c1ccccc1 (stereo partly specified),,,,,,> 100,> 100,> 100,> 100,> 100,> 100,,> 100,,,
CC(C)C(NCc1c2ccccc2[n+](C)c2ccccc12)C(=O)O (stereo unspecified),,,,,,13.8,13.3,18.1,7.33,14,21.2,17.1,17.8,,,
CN1C(c2ccccc2)CC(O)CC1c1ccccc1 (stereo unspecified),,,,,,> 100,> 100,,> 100,> 100,> 100,,,,,
COc1c(OC2OC(CO)C(O)C(O)C2O)cc2c(c1OC)-c1ccc(OC)c(=O)cc1C(NC(C)=O)CC2 (stereo unspecified),,,,,,> 100,> 100,> 100,> 100,> 100,> 100,> 100,> 100,,,
C/C(CCN(C)C)=N/O,,,,,,15.8,18.3,29.6,22.8,4.72,23,,33.6,,,
